Experimental data reported in patent publication US20150329515A1, “COMPOSITION AND METHOD FOR TREATING OR PREVENTING INFLUENZA VIRUS INFECTION” (National Defense Medical Center, priority 2014, published 2015).

Tests used:
[1] = system: influenza A/New York/469/2004-like flu (H3N2) virus; assay: in vitro; details: dog
in vitro = details: dog
[2] = system: influenza A/New York/469/2004-like flu (H3N2) virus; assay: microbe, parasite or virus in culture; details: H3N2, MDCK, read-out: EC50 (μM), H3N2
[3] = CC50 (μM), Table 4 (H3N2 series), MDCK cells

| SMILES | selectivity ratio at 24 h [1] | CC50 (in vitro; [3]) | EC50 [2] | melting point | CC50 (in vitro) |
| --- | --- | --- | --- | --- | --- |
| O=c1cc(-c2ccccc2)oc2cc(O)c(O)c(O)c12 [Baicalein, reference compound] | > 3.3 | > 300 µM | 92.3 µM |  |  |
| O=C(O)[C@H]1O[C@@H](Oc2cc3oc(-c4ccccc4)cc(=O)c3c(O)c2O)[C@H](O)[C@@H](O)[C@@H]1O [Baicalin, reference compound] | > 2.9 | > 300 µM | 104 µM |  |  |
| COc1cc2oc(-c3ccccc3Br)cc(=O)c2c(OC)c1OC [Compound 2k, 2-(2-Bromophenyl)-5,6,7-trimethoxy-4H-chromen-4-one] | 2 | 128 µM | 64.1 µM | 122 to 123 °C |  |
| COc1cc2oc(-c3cccc(Br)c3)cc(=O)c2c(OC)c1OC [Compound 2l, 2-(3-Bromophenyl)-5,6,7-trimethoxy-4H-chromen-4-one] | 0.5 | 64.1 µM | 128 µM | 190 to 191 °C |  |
| COc1cc2oc(-c3ccc(Br)cc3)cc(=O)c2c(OC)c1OC [Compound 2m, 2-(4-Bromophenyl)-5,6,7-trimethoxy-4H-chromen-4-one] |  | > 300 µM |  | 165 to 166 °C |  |
| COc1cc2oc(-c3ccccc3Br)cc(=O)c2c(O)c1OC [Compound 4a, 2-(2-Bromophenyl)-5-hydroxy-6,7-dimethoxy-4H-chromen-4-one] | 1.5 | 200 µM | 133 µM | 221 to 222 °C |  |
| COc1cc2oc(-c3cccc(Br)c3)cc(=O)c2c(O)c1OC [Compound 4b, 2-(3-Bromophenyl)-5-hydroxy-6,7-dimethoxy-4H-chromen-4-one] | 0.5 | 66.5 µM | 133 µM | 188 to 189 °C |  |
| COc1cc2oc(-c3ccc(Br)cc3)cc(=O)c2c(O)c1OC [Compound 4c, 2-(4-Bromophenyl)-5-hydroxy-6,7-dimethoxy-4H-chromen-4-one] |  | > 300 µM |  | 206 to 208 °C |  |
| COc1c(O)cc2oc(-c3ccccc3Br)cc(=O)c2c1O [Compound 5a, 2-(2-Bromophenyl)-5,7-dihydroxy-6-methoxy-4H-chromen-4-one] | > 17.3 | > 300 µM | 17.3 µM |  |  |
| COc1c(O)cc2oc(-c3cccc(Br)c3)cc(=O)c2c1O [Compound 5b, 2-(3-Bromophenyl)-5,7-dihydroxy-6-methoxy-4H-chromen-4-one] | > 17.3 | > 300 µM | 17.3 µM |  |  |
| COc1c(O)cc2oc(-c3ccc(Br)cc3)cc(=O)c2c1O [Compound 5c, 2-(4-Bromophenyl)-5,7-dihydroxy-6-methoxy-4H-chromen-4-one] | > 8.7 | > 300 µM | 34.5 µM | 275 to 276 °C |  |
| O=c1cc(-c2ccccc2Br)oc2cc(O)c(O)c(O)c12 [Compound 6a, 2-(2-Bromophenyl)-5,6,7-trihydroxy-4H-chromen-4-one] | > 4.2 | > 300 µM | 71.8 µM | 249 to 251 °C |  |
| O=c1cc(-c2cccc(Br)c2)oc2cc(O)c(O)c(O)c12 [Compound 6b, 2-(3-Bromophenyl)-5,6,7-trihydroxy-4H-chromen-4-one] | > 8.4 | > 300 µM | 35.9 µM | 255 to 256 °C |  |
| O=c1cc(-c2ccc(Br)cc2)oc2cc(O)c(O)c(O)c12 [Compound 6c, 2-(4-Bromophenyl)-5,6,7-trihydroxy-4H-chromen-4-one] | > 8.4 | > 300 µM | 35.9 µM |  |  |
| NC(=O)c1ncn([C@@H]2O[C@H](CO)[C@@H](O)[C@H]2O)n1 [Ribavirin, reference compound] | > 11.7 | > 300 µM | 25.6 µM |  |  |
| CCOC(=O)C1=C[C@@H](OC(CC)CC)[C@H](NC(C)=O)[C@@H](N)C1 [oseltamivir, reference compound] |  |  |  |  | 320 µM |
